# Experimental data as given in US10710978B2, “STK4 inhibitors for treatment of hematologic malignancies” (Dana-Farber Cancer Institute, Inc., priority 2015, dated 2020).
# Where “and” joins values, the source holds several entries; their conditions need not be identical. Identical values can stand only once. Like-named read-outs stand apart in the source and are kept apart here.
# Legend:
# Test in all cases: KiNativ assay
# Assay type in all cases: binding
# Conditions in all cases: H929 live cell
# ULK1 = ULK1 (Homo sapiens (Human), UniProt O75385)
# Protocol: (§1) Biochemical IC50s of the compounds of the present disclosure against various kinases were measured in a KiNativ assay. Compounds were screened in duplicate at 10 μM in H929 live cell. IC50 was measured via Mass spectroscopy (MS).
# IKKa = IKKa (Homo sapiens (Human), UniProt O15111)
# Protocol: as §1
# SRPK2 = SRPK2 (Homo sapiens (Human), UniProt P78362)
# Protocol: as §1
# PRPK = PRPK (Homo sapiens (Human), UniProt Q96S44)
# Protocol: as §1
# SRPK1 = SRPK1 (Homo sapiens (Human), UniProt Q96SB4)
# Protocol: as §1
# GCN2 domain2 = GCN2 domain2 (Homo sapiens (Human), UniProt Q9P2K8)
# Protocol: as §1
# MARK3 = MARK3 (Homo sapiens (Human), UniProt P27448)
# Protocol: as §1
# MAP2K5 = MAP2K5 (Homo sapiens (Human), UniProt Q13163)
# Protocol: as §1
# LYN = LYN (Homo sapiens (Human), UniProt P07948)
# Protocol: as §1
# SGK3 = SGK3 (Homo sapiens (Human), UniProt Q96BR1)
# Protocol: as §1
# IKKb = IKKb (Homo sapiens (Human), UniProt O14920)
# Protocol: as §1
# PKN1 = PKN1 (Homo sapiens (Human), UniProt Q16512)
# Protocol: as §1
# PLK1 = PLK1 (Homo sapiens (Human), UniProt P53350)
# Protocol: as §1
# PIP4K2A = PIP4K2A (Homo sapiens (Human), UniProt P48426)
# Protocol: as §1
# MAP3K2, MAP3K3 = tested on: MAP3K2, MAP3K3
# Protocol: as §1
# RSK1 domain1 = RSK1 domain1 (Homo sapiens (Human), UniProt Q15418)
# Protocol: as §1
# CDK2 = CDK2 (Homo sapiens (Human), UniProt P24941)
# Protocol: as §1
# NEK4 = NEK4 (Homo sapiens (Human), UniProt P51957)
# Protocol: as §1
# CK1a = CK1a (Homo sapiens (Human), UniProt P48729)
# Protocol: as §1
# CK1g2 = CK1g2 (Homo sapiens (Human), UniProt P78368)
# Protocol: as §1
# NuaK1 = NuaK1 (Homo sapiens (Human), UniProt O60285)
# Protocol: as §1
# KSR1, KSR2 = tested on: KSR1, KSR2
# Protocol: as §1
# LKB1 = LKB1 (Homo sapiens (Human), UniProt Q15831)
# Protocol: as §1
# IRE1 = IRE1 (Homo sapiens (Human), UniProt O75460)
# Protocol: as §1
# STLK5 = STLK5 (Homo sapiens (Human), UniProt Q7RTN6)
# Protocol: as §1
# PITSLRE = tested on: PITSLRE
# Protocol: as §1
# MLKL = MLKL (Homo sapiens (Human), UniProt Q8NB16)
# Protocol: as §1
# CDC2 = CDC2 (Homo sapiens (Human), UniProt P06493)
# Protocol: as §1
# ABL, ARG = tested on: ABL, ARG
# Protocol: as §1
# CDK5 = CDK5 (Homo sapiens (Human), UniProt Q00535)
# Protocol: as §1
# HPK1 = HPK1 (Homo sapiens (Human), UniProt Q92918)
# Protocol: as §1
# MASTL = MASTL (Homo sapiens (Human), UniProt Q96GX5)
# Protocol: as §1
# JAK3 domain2 = JAK3 domain2 (Homo sapiens (Human), UniProt P52333)
# Protocol: as §1
# IKKe, TBK1 = tested on: IKKe, TBK1
# Protocol: as §1
# [1] = range class, read-out: % inhibition
# Sequence of LYN (P07948 whole entry): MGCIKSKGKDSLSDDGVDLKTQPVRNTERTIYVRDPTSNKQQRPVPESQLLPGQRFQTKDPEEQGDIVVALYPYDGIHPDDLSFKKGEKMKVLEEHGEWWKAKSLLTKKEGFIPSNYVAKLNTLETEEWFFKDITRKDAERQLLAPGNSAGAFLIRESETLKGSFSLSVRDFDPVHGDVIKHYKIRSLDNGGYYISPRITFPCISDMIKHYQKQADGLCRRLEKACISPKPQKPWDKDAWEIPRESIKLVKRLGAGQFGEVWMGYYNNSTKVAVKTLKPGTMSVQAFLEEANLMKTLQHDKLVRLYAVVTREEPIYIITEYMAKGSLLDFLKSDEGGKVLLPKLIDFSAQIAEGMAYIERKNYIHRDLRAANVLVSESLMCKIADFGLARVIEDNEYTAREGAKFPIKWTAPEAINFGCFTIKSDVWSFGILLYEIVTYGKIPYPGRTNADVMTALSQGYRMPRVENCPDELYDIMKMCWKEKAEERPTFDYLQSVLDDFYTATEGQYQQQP
# Sequence of STLK5 (Q7RTN6 whole entry): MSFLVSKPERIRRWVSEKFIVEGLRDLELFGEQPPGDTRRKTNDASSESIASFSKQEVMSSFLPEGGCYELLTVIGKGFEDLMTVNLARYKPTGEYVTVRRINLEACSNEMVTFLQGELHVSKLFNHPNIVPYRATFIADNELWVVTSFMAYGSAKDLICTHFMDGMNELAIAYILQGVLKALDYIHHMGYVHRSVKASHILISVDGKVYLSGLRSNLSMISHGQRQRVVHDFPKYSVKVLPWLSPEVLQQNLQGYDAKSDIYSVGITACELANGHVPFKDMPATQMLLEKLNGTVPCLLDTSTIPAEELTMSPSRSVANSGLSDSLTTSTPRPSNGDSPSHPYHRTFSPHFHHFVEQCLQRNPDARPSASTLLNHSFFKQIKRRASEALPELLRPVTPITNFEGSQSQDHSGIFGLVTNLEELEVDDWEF
# Sequence of NEK4 (P51957 whole entry): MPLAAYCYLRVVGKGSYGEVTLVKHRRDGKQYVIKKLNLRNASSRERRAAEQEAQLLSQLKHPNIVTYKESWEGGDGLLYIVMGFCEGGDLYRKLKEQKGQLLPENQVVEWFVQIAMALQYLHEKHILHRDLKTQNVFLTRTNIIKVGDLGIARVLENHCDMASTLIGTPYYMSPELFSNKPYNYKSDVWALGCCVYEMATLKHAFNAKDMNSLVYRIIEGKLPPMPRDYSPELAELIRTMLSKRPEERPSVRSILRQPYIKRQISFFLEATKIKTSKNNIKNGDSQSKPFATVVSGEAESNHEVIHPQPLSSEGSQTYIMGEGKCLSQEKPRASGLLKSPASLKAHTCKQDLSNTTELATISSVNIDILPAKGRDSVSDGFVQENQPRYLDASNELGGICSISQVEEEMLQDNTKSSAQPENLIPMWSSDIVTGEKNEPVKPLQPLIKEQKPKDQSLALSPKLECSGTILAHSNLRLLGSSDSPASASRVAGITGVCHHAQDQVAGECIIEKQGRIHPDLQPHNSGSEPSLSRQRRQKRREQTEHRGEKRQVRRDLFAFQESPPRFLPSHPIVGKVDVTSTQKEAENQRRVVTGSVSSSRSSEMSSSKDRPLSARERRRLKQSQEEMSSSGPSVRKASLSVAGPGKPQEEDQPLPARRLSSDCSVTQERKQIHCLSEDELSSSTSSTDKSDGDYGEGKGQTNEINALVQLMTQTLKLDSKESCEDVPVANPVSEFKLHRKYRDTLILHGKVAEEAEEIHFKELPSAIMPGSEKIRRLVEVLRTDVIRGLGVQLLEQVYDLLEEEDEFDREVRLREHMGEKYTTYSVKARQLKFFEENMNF
# Sequence of IKKb (O14920 whole entry): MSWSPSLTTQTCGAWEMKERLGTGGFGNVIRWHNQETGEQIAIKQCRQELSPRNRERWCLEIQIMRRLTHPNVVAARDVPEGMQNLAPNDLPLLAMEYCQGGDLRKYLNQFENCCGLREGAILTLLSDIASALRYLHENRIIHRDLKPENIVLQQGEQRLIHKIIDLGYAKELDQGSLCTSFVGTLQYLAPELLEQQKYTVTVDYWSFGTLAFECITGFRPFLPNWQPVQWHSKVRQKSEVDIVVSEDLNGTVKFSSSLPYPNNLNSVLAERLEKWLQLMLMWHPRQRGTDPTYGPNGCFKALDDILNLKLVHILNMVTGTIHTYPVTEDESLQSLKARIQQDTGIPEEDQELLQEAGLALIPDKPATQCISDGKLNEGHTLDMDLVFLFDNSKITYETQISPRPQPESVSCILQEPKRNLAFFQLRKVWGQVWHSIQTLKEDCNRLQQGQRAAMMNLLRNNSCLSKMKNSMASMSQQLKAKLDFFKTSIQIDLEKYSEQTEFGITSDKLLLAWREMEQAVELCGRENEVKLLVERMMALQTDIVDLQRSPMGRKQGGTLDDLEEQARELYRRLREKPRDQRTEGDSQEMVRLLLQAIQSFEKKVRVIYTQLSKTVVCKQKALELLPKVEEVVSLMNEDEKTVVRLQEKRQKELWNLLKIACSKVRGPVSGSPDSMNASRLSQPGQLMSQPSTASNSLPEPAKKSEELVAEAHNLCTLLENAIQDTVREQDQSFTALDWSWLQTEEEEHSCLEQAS
# Sequence of IKKa (O15111 whole entry): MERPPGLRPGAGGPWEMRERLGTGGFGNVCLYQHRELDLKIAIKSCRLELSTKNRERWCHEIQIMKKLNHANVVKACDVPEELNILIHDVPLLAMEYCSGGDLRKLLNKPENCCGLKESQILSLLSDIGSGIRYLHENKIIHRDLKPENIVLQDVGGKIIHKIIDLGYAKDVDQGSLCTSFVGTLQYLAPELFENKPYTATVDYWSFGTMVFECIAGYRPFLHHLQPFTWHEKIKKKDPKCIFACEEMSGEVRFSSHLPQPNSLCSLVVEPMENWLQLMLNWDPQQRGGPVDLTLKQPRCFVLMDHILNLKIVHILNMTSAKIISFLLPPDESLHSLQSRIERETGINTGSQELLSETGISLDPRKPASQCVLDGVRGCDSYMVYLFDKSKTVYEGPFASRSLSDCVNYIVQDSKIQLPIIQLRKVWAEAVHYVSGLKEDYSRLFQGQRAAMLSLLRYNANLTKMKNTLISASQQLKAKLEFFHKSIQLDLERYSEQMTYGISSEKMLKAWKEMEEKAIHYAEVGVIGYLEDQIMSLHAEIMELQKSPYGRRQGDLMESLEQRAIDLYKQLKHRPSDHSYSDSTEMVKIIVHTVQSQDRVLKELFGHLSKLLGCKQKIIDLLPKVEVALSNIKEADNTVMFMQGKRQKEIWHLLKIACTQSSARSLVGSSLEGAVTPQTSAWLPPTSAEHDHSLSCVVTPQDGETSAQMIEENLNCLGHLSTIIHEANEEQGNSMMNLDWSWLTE
# Sequence of NuaK1 (O60285 whole entry): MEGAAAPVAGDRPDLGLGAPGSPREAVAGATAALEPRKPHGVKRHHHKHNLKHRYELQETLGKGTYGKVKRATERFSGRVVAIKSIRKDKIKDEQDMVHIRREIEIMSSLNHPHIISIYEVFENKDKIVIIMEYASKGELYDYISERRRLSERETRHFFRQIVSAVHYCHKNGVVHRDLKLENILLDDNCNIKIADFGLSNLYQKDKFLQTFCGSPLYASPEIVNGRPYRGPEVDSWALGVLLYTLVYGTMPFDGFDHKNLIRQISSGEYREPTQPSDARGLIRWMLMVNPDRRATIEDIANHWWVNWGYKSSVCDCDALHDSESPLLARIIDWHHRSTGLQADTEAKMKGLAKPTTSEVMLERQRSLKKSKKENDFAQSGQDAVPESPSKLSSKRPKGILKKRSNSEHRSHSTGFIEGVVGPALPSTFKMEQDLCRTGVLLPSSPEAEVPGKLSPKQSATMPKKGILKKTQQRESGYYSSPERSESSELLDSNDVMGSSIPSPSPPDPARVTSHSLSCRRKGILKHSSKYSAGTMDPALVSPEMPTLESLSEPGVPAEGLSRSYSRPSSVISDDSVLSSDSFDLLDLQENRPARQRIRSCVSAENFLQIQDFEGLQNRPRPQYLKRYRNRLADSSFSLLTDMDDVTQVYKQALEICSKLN
# Sequence of PLK1 (P53350 whole entry): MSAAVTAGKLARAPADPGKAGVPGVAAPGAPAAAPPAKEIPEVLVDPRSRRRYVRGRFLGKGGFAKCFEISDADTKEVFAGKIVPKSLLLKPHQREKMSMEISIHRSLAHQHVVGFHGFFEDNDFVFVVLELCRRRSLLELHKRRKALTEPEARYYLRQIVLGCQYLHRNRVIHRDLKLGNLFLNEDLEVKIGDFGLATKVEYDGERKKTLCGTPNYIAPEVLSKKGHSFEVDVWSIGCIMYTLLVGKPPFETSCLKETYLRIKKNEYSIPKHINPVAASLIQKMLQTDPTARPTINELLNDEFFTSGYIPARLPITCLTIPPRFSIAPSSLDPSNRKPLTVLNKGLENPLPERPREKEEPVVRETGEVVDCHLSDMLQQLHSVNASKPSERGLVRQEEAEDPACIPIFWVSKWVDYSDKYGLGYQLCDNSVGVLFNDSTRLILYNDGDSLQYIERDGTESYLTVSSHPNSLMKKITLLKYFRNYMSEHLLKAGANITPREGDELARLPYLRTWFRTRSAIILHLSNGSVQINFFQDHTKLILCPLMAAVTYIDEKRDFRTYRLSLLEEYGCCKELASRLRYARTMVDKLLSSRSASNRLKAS
# Sequence of MAP2K5 (Q13163 whole entry): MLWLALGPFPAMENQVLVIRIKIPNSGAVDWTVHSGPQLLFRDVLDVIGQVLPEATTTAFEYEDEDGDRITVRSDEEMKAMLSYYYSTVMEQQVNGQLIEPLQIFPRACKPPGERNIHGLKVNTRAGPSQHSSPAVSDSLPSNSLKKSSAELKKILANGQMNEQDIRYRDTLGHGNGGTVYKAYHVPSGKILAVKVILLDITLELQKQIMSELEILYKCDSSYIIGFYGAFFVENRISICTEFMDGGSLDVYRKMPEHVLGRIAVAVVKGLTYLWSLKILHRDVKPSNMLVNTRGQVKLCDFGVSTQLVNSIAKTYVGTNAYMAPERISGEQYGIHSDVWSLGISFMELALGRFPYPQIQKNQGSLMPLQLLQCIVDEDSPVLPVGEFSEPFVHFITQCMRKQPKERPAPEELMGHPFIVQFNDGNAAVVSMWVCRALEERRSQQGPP
smiles,measurement,setting,value
"Nc1ncc(-c2ccc(NS(=O)(=O)C3CC3)cc2OC2CCCCC2)cc1-c1ccc2c(c1)CCNC2=O [Compound I-65, N-(4-(6-amino-5-(1-oxo-1,2,3,4-tetrahydroisoquinolin-6-yl)pyridin-3-yl)-3-(cyclohexyloxy)phenyl) cyclopropanesulfonamide]",inhibition at 10 µM,ULK1; [1],0%
same,inhibition at 10 µM,ULK1; read-out: inhibition (10 μM),22.2%
same,inhibition at 10 µM,IKKa; [1],0%
same,inhibition at 10 µM,IKKa; read-out: inhibition (10 μM),-34.3%
same,inhibition at 10 µM,SRPK2; [1],0%
same,inhibition at 10 µM,SRPK2; read-out: inhibition (10 μM),-29.4%
same,inhibition at 10 µM,PRPK; [1],0%
same,inhibition at 10 µM,PRPK; read-out: inhibition (10 μM),-55.9%
same,inhibition at 10 µM,SRPK1; [1],0%
same,inhibition at 10 µM,SRPK1; read-out: inhibition (10 μM),-25.4%
same,inhibition at 10 µM,GCN2 domain2; [1],35 to 40%
same,inhibition at 10 µM,GCN2 domain2; read-out: inhibition (10 μM),43.5%
same,inhibition at 10 µM,MARK3; [1],0%
same,inhibition at 10 µM,MARK3; read-out: inhibition (10 μM),-22.7%
same,inhibition at 10 µM,MAP2K5; [1],0%
same,inhibition at 10 µM,MAP2K5; read-out: inhibition (10 μM),15%
same,inhibition at 10 µM,LYN; [1],0%
same,inhibition at 10 µM,LYN; read-out: inhibition (10 μM),-1.3%
same,inhibition at 10 µM,SGK3; [1],0%
same,inhibition at 10 µM,SGK3; read-out: inhibition (10 μM),13.5%
same,inhibition at 10 µM,IKKb; [1],0%
same,inhibition at 10 µM,IKKb; read-out: inhibition (10 μM),-36%
same,inhibition at 10 µM,PKN1; read-out: inhibition (10 μM),35.9%
same,inhibition at 10 µM,PLK1; [1],0%
same,inhibition at 10 µM,PLK1; read-out: inhibition (10 μM),-10.1%
same,inhibition at 10 µM,PIP4K2A; [1],0%
same,inhibition at 10 µM,PIP4K2A; read-out: inhibition (10 μM),-4.6%
same,% inhibition,"MAP3K2, MAP3K3; 10 μM, range class",0.0%
same,inhibition (10 μM),"MAP3K2, MAP3K3",23.3%
same,inhibition at 10 µM,RSK1 domain1; [1],50 to 75%
same,inhibition at 10 µM,RSK1 domain1; read-out: inhibition (10 μM),59.9%
same,inhibition at 10 µM,CDK2; [1],0%
same,inhibition at 10 µM,CDK2; read-out: inhibition (10 μM),21.6%
same,inhibition at 10 µM,NEK4; [1],0%
same,inhibition at 10 µM,NEK4; read-out: inhibition (10 μM),23.7%
same,inhibition at 10 µM,CK1a; [1],0%
same,inhibition at 10 µM,CK1a; read-out: inhibition (10 μM),-65.1%
same,inhibition at 10 µM,CK1g2; [1],50 to 75%
same,inhibition at 10 µM,CK1g2; read-out: inhibition (10 μM),74.5%
same,inhibition (10 μM),NuaK1,61.5%
same,inhibition at 10 µM,NuaK1; [1],50 to 75%
same,inhibition at 10 µM,NuaK1; read-out: inhibition (10 μM),66.8%
same,% inhibition,"KSR1, KSR2; 10 μM, range class",0.0%
same,inhibition (10 μM),"KSR1, KSR2",−5.7%
same,inhibition at 10 µM,LKB1; [1],0%
same,inhibition at 10 µM,LKB1; read-out: inhibition (10 μM),27.4%
same,inhibition at 10 µM,IRE1; [1],0%
same,inhibition at 10 µM,IRE1; read-out: inhibition (10 μM),-6.3%
same,inhibition at 10 µM,STLK5; [1],0%
same,inhibition at 10 µM,STLK5; read-out: inhibition (10 μM),-38.6%
same,% inhibition,"PITSLRE; 10 μM, range class",0.0%
same,inhibition (10 μM),PITSLRE,−17.5%
same,inhibition at 10 µM,MLKL; [1],0%
same,inhibition at 10 µM,MLKL; read-out: inhibition (10 μM),0.2%
same,inhibition at 10 µM,CDC2; [1],0%
same,inhibition at 10 µM,CDC2; read-out: inhibition (10 μM),-0.5%
same,% inhibition,"ABL, ARG; 10 μM, range class",0.0%
same,inhibition (10 μM),"ABL, ARG",−2.8%
same,inhibition at 10 µM,CDK5; [1],0%
same,inhibition at 10 µM,CDK5; read-out: inhibition (10 μM),4.9%
same,inhibition at 10 µM,HPK1; [1],> 90%
same,inhibition at 10 µM,HPK1; read-out: inhibition (10 μM),95.5%
same,inhibition at 10 µM,MASTL; [1],0%
same,inhibition at 10 µM,MASTL; read-out: inhibition (10 μM),-9.6%
same,inhibition at 10 µM,JAK3 domain2; [1],50 to 75%
same,inhibition at 10 µM,JAK3 domain2; read-out: inhibition (10 μM),52.1%
same,% inhibition,"IKKe, TBK1; 10 μM, range class",75-90%
same,inhibition (10 μM),"IKKe, TBK1",81.8%
"Nc1ncc(-c2cccc3ncsc23)cc1-c1ccc2c(c1)CCNC2=O [Compound I-13, 6-(2-amino-5-(benzo[d]thiazol-7-yl)pyridin-3-yl)-3,4-dihydroisoquinolin-1(2H)-one]",inhibition at 10 µM,ULK1; read-out: % inhibition (range),0%
same,inhibition at 10 µM,ULK1; read-out: inhibition (10 μM),-23.4%
same,inhibition at 10 µM,IKKa; read-out: % inhibition (range),0%
same,inhibition at 10 µM,IKKa; read-out: inhibition (10 μM),2.6%
same,inhibition at 10 µM,SRPK2; read-out: % inhibition (range),0%
same,inhibition at 10 µM,SRPK2; read-out: inhibition (10 μM),-14%
same,inhibition at 10 µM,PRPK; read-out: % inhibition (range),0%
same,inhibition at 10 µM,PRPK; read-out: inhibition (10 μM),-6.4%
same,inhibition at 10 µM,SRPK1; read-out: % inhibition (range),0%
same,inhibition at 10 µM,SRPK1; read-out: inhibition (10 μM),10.8%
same,inhibition at 10 µM,GCN2 domain2; read-out: % inhibition (range),0%
same,inhibition at 10 µM,GCN2 domain2; read-out: inhibition (10 μM),13.5%
same,inhibition at 10 µM,MARK3; read-out: % inhibition (range),35 to 50%
same,inhibition at 10 µM,MARK3; read-out: inhibition (10 μM),46.2%
same,inhibition at 10 µM,MAP2K5; read-out: % inhibition (range),0%
same,inhibition at 10 µM,MAP2K5; read-out: inhibition (10 μM),13.4%
same,inhibition at 10 µM,LYN; read-out: % inhibition (range),0%
same,inhibition at 10 µM,LYN; read-out: inhibition (10 μM),-41.4%
same,inhibition at 10 µM,SGK3; read-out: % inhibition (range),0%
same,inhibition at 10 µM,SGK3; read-out: inhibition (10 μM),13.1%
same,inhibition at 10 µM,IKKb; read-out: % inhibition (range),0%
same,inhibition at 10 µM,IKKb; read-out: inhibition (10 μM),-3.3%
same,inhibition at 10 µM,PKN1; read-out: % inhibition (range),0%
same,inhibition at 10 µM,PKN1; read-out: inhibition (10 μM),19%
same,inhibition at 10 µM,PLK1; read-out: % inhibition (range),0%
same,inhibition at 10 µM,PLK1; read-out: inhibition (10 μM),6.6%
same,inhibition at 10 µM,PIP4K2A; read-out: % inhibition (range),0%
same,inhibition at 10 µM,PIP4K2A; read-out: inhibition (10 μM),2.3%
same,% inhibition (range),"MAP3K2, MAP3K3; 10 μM",0.0%
same,inhibition (10 μM),"MAP3K2, MAP3K3",0.2%
same,inhibition at 10 µM,RSK1 domain1; read-out: % inhibition (range),0%
same,inhibition at 10 µM,RSK1 domain1; read-out: inhibition (10 μM),3.3%
same,inhibition at 10 µM,CDK2; read-out: % inhibition (range),0%
same,inhibition at 10 µM,CDK2; read-out: inhibition (10 μM),33.3%
same,inhibition at 10 µM,NEK4; read-out: % inhibition (range),0%
same,inhibition at 10 µM,NEK4; read-out: inhibition (10 μM),4.7%
same,inhibition at 10 µM,CK1a; read-out: % inhibition (range),0%
same,inhibition at 10 µM,CK1a; read-out: inhibition (10 μM),-17.4%
same,inhibition at 10 µM,CK1g2; read-out: % inhibition (range),> 90%
same,inhibition at 10 µM,CK1g2; read-out: inhibition (10 μM),> 90%
same,% inhibition (range),NuaK1; 10 μM,50-75% and 75-90%
same,inhibition (10 μM),NuaK1,83.7%
same,inhibition at 10 µM,NuaK1; read-out: inhibition (10 μM),71.7%
same,% inhibition (range),"KSR1, KSR2; 10 μM",0.0%
same,inhibition (10 μM),"KSR1, KSR2",−6.2%
same,inhibition at 10 µM,LKB1; read-out: % inhibition (range),0%
same,inhibition at 10 µM,LKB1; read-out: inhibition (10 μM),4.3%
same,inhibition at 10 µM,IRE1; read-out: % inhibition (range),0%
same,inhibition at 10 µM,IRE1; read-out: inhibition (10 μM),-17%
same,inhibition at 10 µM,STLK5; read-out: % inhibition (range),0%
same,inhibition at 10 µM,STLK5; read-out: inhibition (10 μM),9.9%
same,% inhibition (range),PITSLRE; 10 μM,0.0%
same,inhibition (10 μM),PITSLRE,−3.6%
same,inhibition at 10 µM,MLKL; read-out: % inhibition (range),0%
same,inhibition at 10 µM,MLKL; read-out: inhibition (10 μM),15.2%
same,inhibition at 10 µM,CDC2; read-out: % inhibition (range),0%
same,inhibition at 10 µM,CDC2; read-out: inhibition (10 μM),-15%
same,% inhibition (range),"ABL, ARG; 10 μM",50-75%
same,inhibition (10 μM),"ABL, ARG",53.5%
same,inhibition at 10 µM,CDK5; read-out: % inhibition (range),0%
same,inhibition at 10 µM,CDK5; read-out: inhibition (10 μM),20%
same,inhibition at 10 µM,HPK1; read-out: % inhibition (range),50 to 75%
same,inhibition at 10 µM,HPK1; read-out: inhibition (10 μM),52.1%
same,inhibition at 10 µM,MASTL; read-out: % inhibition (range),0%
same,inhibition at 10 µM,MASTL; read-out: inhibition (10 μM),-2%
same,inhibition at 10 µM,JAK3 domain2; read-out: % inhibition (range),0%
same,inhibition at 10 µM,JAK3 domain2; read-out: inhibition (10 μM),-12.8%
same,% inhibition (range),"IKKe, TBK1; 10 μM",0.0%
same,inhibition (10 μM),"IKKe, TBK1",−9.9%
